Test results published in patent publication US20170121344A1 (Siga Technologies, Inc., priority 2009, published 2017).
Where a name gives a salt, the structure may show the parent alone. Read-outs that look alike come from different tables or passages of the source.

Test system: Dengue-2 (Strain New Guinea C)
Assay: Viral yield assay against Dengue-2 in Vero cells
Format: cell-based, Dengue virus
Settings: Dengue virus
Procedure: Compounds that were active in the primary screen were tested for activity in viral yield assays. […] Vero cells in 12-well plates were infected with dengue-2 virus at a multiplicity of infection (MOI) of 0.1, treated with compound (or DMSO as a control), incubated at 37° C., harvested 48 hours post infection and titered on Vero cells as described above. The EC50 was calculated through ExcelFit. Activities against other serotypes of dengue virus were determined in a similar way.

[1] = Vero, 48 h, read-out: Activity (EC50 class) against Dengue-2 Virus in Vero cells
[2] = Vero cells, MOI 0.1, harvested 48 hours post infection, read-out: Activity (EC50 class) against Dengue-2 Virus in Vero cells
[3] = DENV2, viral yield assay, Vero cells, MOI 0.1, 48 hours post infection, read-out: Activity (EC50 in μM) DENV-2

## CC(C)N1CCc2nc3sc(C(=O)NCc4ccc5c(c4)OCO5)c(N)c3cc2C1 [Compound 26, 3-Amino-6-isopropyl-5,6,7,8-tetrahydro-thieno[2,3-b][1,6]naphthyridine-2-carboxylic acid (benzo[1,3]dioxol-5-ylmethyl)-amide]
[1]
  EC50: < 5 µM

## Cc1cc(C)c2c(N)c(C(=O)Nc3cccc4cccnc34)sc2n1 [Compound 121, 3-Amino-4,6-dimethyl-thieno[2,3-b]pyridine-2-carboxylic acid quinolin-8-ylamide]
[2]
  EC50: > 25 µM

## Nc1c(C(=O)NCCc2ccccc2)sc2nc3c(cc12)CCCCC3 [Compound 205, 3-Amino-6,7,8,9-tetrahydro-5H-1-thia-10-aza-cyclohepta[f]indene-2-carboxylic acid phenethyl-amide]
[2]
  EC50: > 25 µM

## Nc1c(C(=O)Nc2cccc(Br)c2)sc2ncccc12 [Compound 421, 3-amino-N-(3-bromophenyl)thieno[2,3-b] pyridine-2-carboxamide]
[3]
  EC50: 5 to 25 µM

## CN1CCc2nc3sc(C(=O)Nc4ccc(F)c(Cl)c4)c(N)c3cc2C1 [Compound 110, 3-Amino-6-methyl-5,6,7,8-tetrahydro-thieno[2,3-b][1,6]naphthyridine-2-carboxylic acid (3-chloro-4-fluoro-phenyl)-amide]
[2]
  EC50: 5 to 25 µM

## Nc1c(C(=O)N(c2ccccc2)c2ccccc2)sc2nc3c(cc12)CCC3 [Compound 207, 3-Amino-6,7-dihydro-5H-cyclopenta[b]thieno[3,2-e]pyridine-2-carboxylic acid diphenylamide]
[2]
  EC50: > 25 µM

## COc1cccc(-c2ccc3c(N)c(C(=O)Nc4ccc(F)cc4F)sc3n2)c1 [Compound 502, 3-amino-N-(2,4-difluorophenyl)-6-(3-methoxyphenyl)thieno[2,3-b]pyridine-2-carboxamide]
[3]
  EC50: < 5 µM

## Cc1cc(F)ccc1NC(=O)c1sc2nc3c(cc2c1N)CN(C)CC3 [Compound 265, 3-Amino-6-methyl-5,6,7,8-tetrahydro-thieno[2,3-b][1,6]naphthyridine-2-carboxylic acid (4-fluoro-2-methyl-phenyl)-amide]
[2]
  EC50: > 25 µM

## Nc1c(C(=O)Nc2ccc(Cl)c(C(F)(F)F)c2)sc2nc(-c3cccs3)ccc12 [Compound 443, 3-amino-N-[4-chloro-3-(trifluoromethyl)phenyl]-6-(2-thienyl) thieno[2,3-b]pyridine-2-carboxamide]
[3]
  EC50: < 5 µM

## NCCCNc1c(C(=O)Nc2nnc(-c3ccccc3)s2)sc2nc3c(cc12)CCCCC3 [Compound 313, 3-((3-aminopropyl)amino)-N-(5-phenyl-1,3,4-thiadiazol-2-yl)-6,7,8,9-tetrahydro-5H-cyclohepta[b]thieno[3,2-e]pyridine-2-carboxamide]
DENV2, Vero cells, read-out: Activity (EC50 in μM) DENV-2
  EC50: < 5 µM

## CCC1(C)Cc2c(c(N3CCOCC3)nc3sc4c(=O)[nH]cnc4c23)CO1 (centres unmarked) [Compound 261, 2-Ethyl-2-methyl-5-morpholin-4-yl-1,4-dihydro-2H,9H-3-oxa-7-thia-6,9,11-triaza-benzo[c]fluoren-8-one]
[2]
  EC50: > 25 µM

## COc1ccc(-c2ccc3c(N)c(C(=O)Nc4ccc(Cl)c(C(F)(F)F)c4)sc3n2)cc1OC [Compound 585, 3-amino-N-[4-chloro-3-(trifluoromethyl)phenyl]-6-(3,4-dimethoxyphenyl)thieno [2,3-b]pyridine-2-carboxamide]
[3]
  EC50: < 5 µM

## Cc1ccccc1NC(=O)c1sc2nc3c(c(-c4ccco4)c2c1N)CCCC3 [Compound 218, 3-Amino-4-furan-2-yl-5,6,7,8-tetrahydro-thieno[2,3-b]quinoline-2-carboxylic acid o-tolylamide]
[1]
  EC50: > 25 µM

## CCCSc1nc2ccc(NC(=O)c3sc4nc(-c5cccc(OC)c5)ccc4c3N)cc2s1 [Compound 568, 3-amino-6-(3-methoxyphenyl)-N-(2-propylsulfanyl-1,3-benzothiazol-6-yl) thieno[2,3-b]pyridine-2-carboxamide]
[3]
  EC50: < 5 µM

## Cc1cc(NC(=O)c2sc3nc4c(cc3c2N)CN(C)CC4)on1 [Compound 264, 3-Amino-6-methyl-5,6,7,8-tetrahydro-thieno[2,3-b][1,6]naphthyridine-2-carboxylic acid (3-methyl-isoxazol-5-yl)-amide]
[2]
  EC50: > 25 µM

## CC(=O)c1cc2c(N)c(C(=O)NC34CC5CC(CC(C5)C3)C4)sc2nc1C [Compound 142, 5-Acetyl-3-amino-6-methyl-thieno[2,3-b]pyridine-2-carboxylic acid adamantan-1-ylamide]
[2]
  EC50: > 25 µM

## COc1cc(NC(=O)c2sc3nc(C)cc(C)c3c2C)cc(OC)c1OC [Compound 401, 3,4,6-trimethyl-N-(3,4,5-trimethoxyphenyl)thieno[2,3-b]pyridine-2-carboxamide]
[3]
  EC50: > 25 µM

## CC(NC(=O)c1sc2nc3c(cc2c1N)CN(C)CC3)[C@]12C[C@H]3C[C@H](C[C@H](C3)C1)C2 (some centres unmarked) [Compound 47, 3-Amino-6-methyl-5,6,7,8-tetrahydro-thieno[2,3-b][1,6]naphthyridine-2-carboxylic acid (1-adamantan-1-yl-ethyl)-amide]
[2]
  EC50: < 5 µM

## CCOc1ccccc1NC(=O)c1sc2nc(-c3ccc(F)cc3)ccc2c1N [Compound 606, 3-amino-N-(2-ethoxyphenyl)-6-(4-fluorophenyl)thieno[2,3-b]pyridine-2-carboxamide]
[3]
  EC50: < 5 µM

## CCNC(=O)c1cccc(NC(=O)c2sc3nc(C)cc(C)c3c2C)c1 [Compound 402, N-[3-(ethylcarbamoyl)phenyl]-3,4,6-trimethyl-thieno[2,3-b]pyridine-2-carboxamide]
[3]
  EC50: > 25 µM

## COc1cccc(-c2ccc3c(N)c(C(=O)Nc4ccc(C(C)=O)cc4)sc3n2)c1 [Compound 513, N-(4-acetylphenyl)-3-amino-6-(3-methoxyphenyl)thieno[2,3-b]pyridine-2-carboxamide]
DENV2, Vero, 48 h, read-out: Activity (EC50 in μM) DENV-2
  EC50: < 5 µM

## COc1ccc(OC)c(NC(=O)c2sc3nc(-c4ccc(OC)c(OC)c4)ccc3c2N)c1 [Compound 518, 3-amino-N-(2,5-dimethoxyphenyl)-6-(3,4-dimethoxyphenyl)thieno[2,3-b]pyridine-2-carboxamide]
[3]
  EC50: < 5 µM

## Nc1c(C(=O)Nc2nnc(-c3ccccc3)s2)sc2nc3c(cc12)CNCCC3 [Compound 52, 3-Amino-6,7,8,9-tetrahydro-5H-1-thia-6,10-diaza-cyclohepta[f]indene-2-carboxylic acid (5-phenyl-[1,3,4]thiadiazol-2-yl)-amide hydrochloride]
[2]
  EC50: < 5 µM

## COc1cccc(-c2ccc3c(N)c(C(=O)Nc4ccc(Br)cc4C)sc3n2)c1 [Compound 549, 3-amino-N-(4-bromo-2-methyl-phenyl)-6-(3-methoxyphenyl)thieno[2,3-b] pyridine-2-carboxamide]
[3]
  EC50: < 5 µM

## NC(=O)c1sc2nc3c(cc2c1N)CCCCC3 [Compound 82, 3-Amino-6,7,8,9-tetrahydro-5H-1-thia-10-aza-cyclohepta[f]indene-2-carboxylic acid amide]
[2]
  EC50: 5 to 25 µM

## CN(C)c1ccnc2sc3c(=O)n(-c4ccccc4)cnc3c12 [Compound 159, 9-Dimethylamino-3-phenyl-3H-pyrido[3′,2′:4,5]thieno[3,2-d]pyrimidin-4-one]
[1]
  EC50: > 25 µM

## CCOc1ccccc1NC(=O)c1sc2nc(-c3ccc4c(c3)OCO4)ccc2c1N [Compound 517, 3-amino-6-(1,3-benzodioxol-5-yl)-N-(2-ethoxyphenyl)thieno[2,3-b]pyridine-2-carboxamide]
[3]
  EC50: < 5 µM

## COc1cccc(-c2ccc3c(N)c(C(=O)Nc4ccc5c(c4)OCCO5)sc3n2)c1 [Compound 499, 3-amino-N-(2,3-dihydor-1,4-benzodioxin-6-yl)-6-(3-methoxyphenyl)thieno[2,3-b] pyridine-2-carboxamide]
[3]
  EC50: < 5 µM

## COc1ccc(NC(=O)c2sc3nc(-c4ccc(Cl)cc4)ccc3c2N)cc1 [Compound 527, 3-amino-6-(4-chlorophenyl)-N-(4-methoxyphenyl)thieno[2,3-b]pyridine-2-carboxamide]
[3]
  EC50: < 5 µM

## CN1CCc2nc3sc(C(=O)Nc4nc5ccccc5s4)c(N)c3cc2C1 [Compound 62, 3-Amino-6-methyl-5,6,7,8-tetrahydro-thieno[2,3-b][1,6]naphthyridine-2-carboxylic acid benzothiazol-2-ylamide]
[2]
  EC50: < 5 µM

## NC(=O)c1sc2nc3c(c(-c4ccco4)c2c1N)CCCC3 [Compound 11, 3-Amino-4-furan-2-yl-5,6,7,8-tetrahydro-thieno[2,3-b]quinoline-2-carboxylic acid amide]
[2]
  EC50: < 5 µM

## Cc1cc(C)c2c(N)c(C(=O)Nc3ccc4ccccc4c3)sc2n1 [Compound 83, 3-Amino-4,6-dimethyl-thieno[2,3-b]pyridine-2-carboxylic acid naphthalen-2-ylamide]
[2]
  EC50: 5 to 25 µM

## Nc1c(C(=O)Nc2ccccc2OC(F)(F)F)sc2nc3c(cc12)CCCCC3 [Compound 371, 3-amino-N-(2-(trifluoromethoxy)phenyl)-6,7,8,9-tetrahydro-5H-cyclohepta[b]thieno [3,2-e]pyridine-2-carboxamide]
[3]
  EC50: < 5 µM

## CCc1nnc(NC(=O)c2sc3nc4c(cc3c2N)CN(C)CC4)s1 [Compound 268, 3-Amino-6-methyl-5,6,7,8-tetrahydro-thieno[2,3-b][1,6]naphthyridine-2-carboxylic acid (5-ethyl-[1,3,4]thiadiazol-2-yl)-amide]
[2]
  EC50: > 25 µM

## Cc1nc2c(sc3nc4c(cc32)COC(C)(C)C4)c(=O)n1CC1CCCO1 (centres unmarked) [Compound 236, 3,8,8-Trimethyl-2-(tetrahydro-furan-2-ylmethyl)-8,9-dihydro-2H,6H-7-oxa-11-thia-2,4,10-triaza-benzo[b]fluoren-1-one]
[2]
  EC50: > 25 µM
